What all share (format): cell-based
The test system of one assay is MDA-MB-436. In words: AlamarBlue cell viability assay, MDA-MB-436. The conditions noted are these: Homo sapiens, Mammary. The source says: (A) Inhibitory concentration 50% (IC50) values for compound 43 in the MC cell lines are tabulated, using an AlamarBlue™ cell viability assay as previously described in Pandey V et al., Breast Cancer Res. 2014; 16(5):429. (B) Measured dose-dependent manner effect of compound 43 on the viability of MC cells (left-side, TFF3-high and right, TFF3-low) using AlamarBlue™ viability assay as previously described (ibid). (C) Apoptotic cell death of mammary carcinoma cell lines measured after treatment with 10 μM compound 43 using flow cytometry analysis at 24 hour as described previously in Keerthy H K et al., PloS one. 2014; 9(9):e107118. Annexin V-FITC staining is indicated on the X-axis and PI staining on the Y-axis. […] Acquisition of Annexin V and PI data were represented as percentage (%) in each quadrant. Note: CM, conditioned media; MCF10A and MCF12A, non-transformed immortalized-mammary epithelial cell line. Points are mean of triplicate experiments; bars, ±SD. Statistical significance was assessed by using an unpaired two-tailed Student's t test (P<0.05 was considered as significant) using GraphPad Prism5. […]
(§1) In table 9 IC50 values of compound 43 compound library in several cancer cell lines are tabulated, using an AlamarBlue® cell viability assay as previously described in Pandey V et al., Breast Cancer Res. 2014; 16(5):429. Statistical analysis was assessed by using GraphPad Prism5. […]
(Alamar Blue is a resazurin reagent that responds to reducing activity.)

The test system of the next assay is AN3. In words: AlamarBlue cell viability assay, AN3. The conditions noted are these: Homo sapiens, Endometrial. How it is done: (§2) The human immortalized mammary epithelial cell lines, MCF10A, and MCF12A; and immortalized hepatocellular epithelial cell line, LO2 were obtained from the American Type Culture Collection (ATCC, Rockville, Md.) and were cultured as per ATCC propagation instructions. MC cell lines, MCF7, T47D, BT474, BT20, MDA-MB-361, MDA-MB-436, MDA-MB-468, and MDA-MB-231; endometrial carcinoma cell lines, Ishikawa, ECC1, RL95-2 and AN3; hepatocellular carcinoma cell lines, Hep3B, H2P, and H2M; colon carcinoma cell lines, DLD-1, and Caco-2; and prostate carcinoma cell lines, PC3, LNCaP, and DU145 were obtained from the American Type Culture Collection (ATCC, Rockville, Md.). Pancreatic carcinoma cell lines, AsPC-1 and BxPC-3; Lung carcinoma cell lines, HCC-827, NCI-H1975, HCC-4006, PC-14, and NCI-H1299; and Thyroid carcinoma cell lines HTH83, CAL62, T238, and OGK-M were obtained from Prof. H. Phillip Koeffler's laboratory at The Cancer Science Institute of Singapore, National University of Singapore (NUS). Gastric carcinoma cell lines, AGS, MKN-28, MKN-45, and A2-528 were obtained from Prof. […]
as §1

In the next assay the test system is H2M. As to the kind of experiment: AlamarBlue cell viability assay, H2M. The conditions noted are these: Homo sapiens, Hepatocellular. How it is done: as §2, §1
The subject of a further assay is AGS. As to the kind of experiment: AlamarBlue cell viability assay, AGS. The conditions noted are these: Homo sapiens, Gastric. How it is done: as §2, §1
Another assay concerns PC-14. As to the kind of experiment: AlamarBlue cell viability assay, PC-14. The conditions noted are these: Homo sapiens, Lung. How it is done:
as §2, §1

For `Cc1cc(-c2ccc(C3C(C#N)=C(N)Oc4c3c(=O)oc3ccccc43)cc2)cnc1F` (centres unmarked) [Compound 43, 2-Amino-4-(4-(6-fluoro-5-methylpyridin-3-yl)phenyl)-5-oxo-4H,5H-pyrano[3,2-c]chromene-3-carbonitrile], the half-inhibitory concentration (IC50) in the assay with MDA-MB-436 came out at 396 µM; in the assay with AN3, 289 µM; in the assay on H2M, 7.86 µM; with AGS, 3.08 µM; with PC-14 it was 24.2 µM.

As usually defined, the IC50 is the concentration that inhibits the measured activity by half.

The values are drawn from patent US20200147039A1, “COMPOUNDS USEFUL IN INHIBITING HUMAN TREFOIL FACTOR 3” (NATIONAL UNIVERSITY OF SINGAPORE, priority 2017, published 2020).
